The test system of data set [1] is Cotton Aphid (aphis gossypii), mixed life stages. Nature of the data set: Cotton aphid (Aphis gossypii), mixed life stages, leaf-dip test on cotton plants. Type of data set: in vivo. Particulars: 120 h, 300 ppm, infested cotton cotyledons dipped 3 seconds, after 5 days, read-out: mortality of cotton aphid in comparison with untreated controls. How it is done:
(§1) The active compounds were formulated in a mixture of 50 vol.-% acetone:50 vol.-% water. A nonionic surfactant (Kinetic®) was included in the solution at a volume of 0.01% v/v.
(§2) In the following tests, the formulated solutions of the active compounds were diluted to an active ingredient concentration of 300 ppm and the diluted solutions were applied in the below mentioned tests.
II.1 Cotton Aphid (aphis gossypii), Mixed Life Stages
Cotton plants at the cotyledon stage were infested prior to treatment by placing a heavily infested leaf from the main aphid colony on top of each cotyledon. The aphids were allowed to transfer overnight and the host leaf was removed. The infested cotyledons were then dipped and agitated in the test solution for 3 seconds and allowed to dry in a fume hood. Test plants were maintained under fluorescent lighting in a 24-hr photoperiod at 25° C. and 20-40% relative humidity. Aphid mortality on the treated plants, relative to mortality on untreated check plants, was determined after 5 days.

Another data set relates to Bean Aphid (Aphis fabae). As to the kind of experiment: Bean aphid (Aphis fabae), plant-dip test on nasturtium plants. The data set is classed as in vivo. Particulars: 72 h, 300 ppm, infested nasturtium plants dipped, after 3 days, read-out: mortality of bean aphid in comparison with untreated controls. As for the experimental part: as §1, §2
11.3 Bean Aphid (Aphis fabae)
Nasturtium plants grown in Metro mix in the 1st leaf-pair stage (variety ‘Mixed Jewel’) were infested with approximately 2-30 laboratory-reared aphids by placing infested cut plants on top of the test plants. The cut plants were removed after 24 hr. Each plant was dipped into the test solution to provide complete coverage of the foliage, stem, protruding seed surface and surrounding cube surface and allowed to dry in the fume hood. The treated plants were kept at about 25° C. with continuous fluorescent light. Aphid mortality is determined after 3 days.

The test system of data set [2] is Green Peach Aphid (Myzus persicae), mixed life stages. As to the kind of experiment: Green peach aphid (Myzus persicae), mixed life stages, leaf-dip test on bell pepper plants. The data set is classed as in vivo. Particulars: 120 h, 300 ppm, infested bell pepper leaves dipped 3 seconds, after 5 days, read-out: mortality of green peach aphid in comparison with untreated controls. How it is done:
as §1, §2
II.2 Green Peach Aphid (Myzus persicae), Mixed Life Stages
Bell pepper plants at the first true-leaf stage were infested prior to treatment by placing heavily infested leaves from the main aphid colony on top of the treatment plants. The aphids were allowed to transfer overnight to accomplish an infestation of 30-40 aphids per plant and the host leaves were removed. The infested leaves of the test plants were then dipped and agitated in the test solution for 3 seconds and allowed to dry in a fume hood. Test plants were maintained under fluorescent lighting in a 24-hr photoperiod at 25° C. and 20-40% relative humidity. Aphid mortality on the treated plants, relative to mortality on untreated check plants, was determined after 5 days.

The structures appear in SMILES notation.

`Cc1cccc(S(=O)(=O)n2cccn2)c1C#N` [Example 46, 2-Methyl-6-(pyrazole-1-sulfonyl)-benzonitrile] gave a melting point of 99 to 104 °C.

In the case of `CCO/C(=N\S(=O)(=O)c1cccc(C)c1C#N)NC(C)C` [Example 29, N-(Isopropylamino-ethoxy-methylene)-2-cyano-3-methyl-benzenesulfonamide], the melting point lay in the range of 139 to 142 °C.

The compound `Cc1cccc(S(=O)(=O)n2cncn2)c1C#N` [Example 47, 2-Methyl-6-([1.2.4]-triazole-1-sulfonyl)-benzonitrile] registered a melting point of 142 to 144 °C.

Consider `C#CCN(C(=O)CC)S(=O)(=O)c1cccc(C)c1C#N` [Example 8], for which the mortality at 300 ppm (in data set [1]; with Bean Aphid (Aphis fabae); in data set [2]) was at least 86% throughout.

On to `CCOC(=NS(=O)(=O)c1cccc(OC(F)F)c1C#N)OCC` [Example 33], for which the mortality at 300 ppm (in data set [1]; in the data set with Bean Aphid (Aphis fabae); in data set [2]) was at least 86% in each case.

Regarding `C#CCN(C(=O)C(F)(F)F)S(=O)(=O)c1cccc(C)c1C#N` [Example 11], the mortality at 300 ppm (in data set [1]; in the data set on Bean Aphid (Aphis fabae); in data set [2]) was at least 86% in each case.

Usually melting point stands for the temperature, or range, at which the solid turns liquid. For orientation: mortality means the percentage killed.

The record behind these values is patent US20080300280A1, “Cyanobenzene Compounds for Combating Animal Pests” (priority 2005, published 2008).
